In US7091201B2, “Arylalkane-sulfonamides having endothelin-antagonist activity” (Actelion Pharmaceuticals Ltd., priority 2000, dated 2006):

What was measured:
[1] = biological target: T1, human recombinant ETA receptors (Homo sapiens, UniProt P25101); assay: Inhibition of [125I]ET-1 binding to membranes from CHO cells carrying human ETA receptors
T1 construct: expressed in transfected cells; host or cells: CHO cells
T1 sequence (P25101 21-427): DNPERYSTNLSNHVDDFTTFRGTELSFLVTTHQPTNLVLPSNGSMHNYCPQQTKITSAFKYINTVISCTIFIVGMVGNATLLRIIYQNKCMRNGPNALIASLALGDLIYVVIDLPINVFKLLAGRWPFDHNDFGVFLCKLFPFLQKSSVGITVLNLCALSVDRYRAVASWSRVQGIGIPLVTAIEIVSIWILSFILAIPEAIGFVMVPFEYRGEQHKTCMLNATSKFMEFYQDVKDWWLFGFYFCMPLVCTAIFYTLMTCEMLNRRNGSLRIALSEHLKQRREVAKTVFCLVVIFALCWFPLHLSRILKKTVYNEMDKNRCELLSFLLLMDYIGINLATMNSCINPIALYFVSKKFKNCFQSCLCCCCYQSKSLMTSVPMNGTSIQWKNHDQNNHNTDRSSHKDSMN
Description: (§1) 1) Inhibition of Endothelin Binding to Membranes from CHO Cells Carrying Human ET Receptors:
(§2) For competition binding studies, membranes of CHO cells expressing human recombinant ETA or ETB receptors were used.
(§3) The assay was performed in 200 uL 50 mM Tris/HCl buffer, pH 7.4, including 25 mM MnCl2, 1 mM EDTA and 0.5% (w/v) BSA in polypropylene microtiter plates. […] After 2 h, the membranes were filtered on filterplates containing GF/C filters (Unifilterplates from Can berra Packard S. A. Zürich, Switzerland). To each well, 50 uL of scintillation cocktail was added (MicroScint 20, Can berra Packard S. A. Zürich, Switzerland) and the filter plates counted in a microplate counter (TopCount, Can berra Packard S. A. Zürich, Switzerland).
(§4) All the test compounds were dissolved, diluted and added in DMSO.

[2] = biological target: T2, human recombinant ETB receptors (Homo sapiens, UniProt P24530); assay: Inhibition of [125I]ET-1 binding to membranes from CHO cells carrying human ETB receptors
T2 construct: expressed in transfected cells; host or cells: CHO cells
T2 sequence (P24530 27-442): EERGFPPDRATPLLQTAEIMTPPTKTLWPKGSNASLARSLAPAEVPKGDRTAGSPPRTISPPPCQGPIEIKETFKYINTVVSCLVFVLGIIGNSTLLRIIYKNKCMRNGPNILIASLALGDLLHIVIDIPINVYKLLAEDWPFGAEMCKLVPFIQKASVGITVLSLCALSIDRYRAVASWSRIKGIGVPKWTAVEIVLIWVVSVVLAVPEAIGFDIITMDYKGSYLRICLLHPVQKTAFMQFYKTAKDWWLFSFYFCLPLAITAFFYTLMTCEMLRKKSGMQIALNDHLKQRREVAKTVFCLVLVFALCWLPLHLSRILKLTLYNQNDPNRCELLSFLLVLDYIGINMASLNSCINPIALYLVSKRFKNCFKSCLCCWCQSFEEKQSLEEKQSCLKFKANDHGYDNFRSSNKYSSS
Description: as §1, §2, §3, §4

[3] = biological target: T3, rat aortic rings (ETA receptors) (Rattus norvegicus, UniProt P26684); assay: Inhibition of endothelin-1-induced contractions on isolated rat aortic rings; assay type: cell-based; settings: read-out: pA2 (aortic rings) (converted)
T3 construct: from tissue; host or cells: thoracic aorta rings of adult Wistar rats, endothelium removed
T3 sequence (P26684 21-426): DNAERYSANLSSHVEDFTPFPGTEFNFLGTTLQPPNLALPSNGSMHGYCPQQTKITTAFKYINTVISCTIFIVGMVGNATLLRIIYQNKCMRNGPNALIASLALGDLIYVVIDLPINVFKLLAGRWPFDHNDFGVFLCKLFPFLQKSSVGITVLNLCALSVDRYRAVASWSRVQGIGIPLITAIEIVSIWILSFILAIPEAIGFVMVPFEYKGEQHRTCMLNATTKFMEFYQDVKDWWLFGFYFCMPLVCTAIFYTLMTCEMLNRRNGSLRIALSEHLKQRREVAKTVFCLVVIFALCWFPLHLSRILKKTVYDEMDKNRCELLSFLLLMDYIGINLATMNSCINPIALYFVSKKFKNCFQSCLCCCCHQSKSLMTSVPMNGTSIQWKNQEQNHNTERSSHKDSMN
Description: (§5) 2) Inhibition of Endothelin-Induced Contractions on Isolated Rat Aortic Rings (ETA Receptors) and Rat Tracheal Rings (ETB Receptors):
(§6) Adult Wistar rats were anesthetized and exsanguinated. The thoracic aorta or trachea were excised, dissected and cut in 3–5 mm rings. The endothelium/epithelium was removed by gentle rubbing of the intimal surface. […] The rings were connected to force transducers and isometric tension was recorded (EMKA Technologies SA, Paris, France). The rings were stretched to a resting tension of 3 g (aorta) or 2 g (trachea). […] The functional inhibitory potency of the test compound was assessed by calculating the concentration ratio, i.e. the shift to the right of the EC50 induced by different concentrations of test compound. EC50 is the concentration of endothelin needed to get a half-maximal contraction, pA2 is the negative logarithm of the antagonist concentration which induces a two-fold shift in the EC50 value.

[4] = biological target: T4, rat tracheal rings (ETB receptors) (Rattus norvegicus, UniProt P21451); assay: Inhibition of sarafotoxin S6c-induced contractions on isolated rat tracheal rings; assay type: cell-based
T4 construct: from tissue; host or cells: tracheal rings of adult Wistar rats, epithelium removed
T4 sequence (P21451 27-442): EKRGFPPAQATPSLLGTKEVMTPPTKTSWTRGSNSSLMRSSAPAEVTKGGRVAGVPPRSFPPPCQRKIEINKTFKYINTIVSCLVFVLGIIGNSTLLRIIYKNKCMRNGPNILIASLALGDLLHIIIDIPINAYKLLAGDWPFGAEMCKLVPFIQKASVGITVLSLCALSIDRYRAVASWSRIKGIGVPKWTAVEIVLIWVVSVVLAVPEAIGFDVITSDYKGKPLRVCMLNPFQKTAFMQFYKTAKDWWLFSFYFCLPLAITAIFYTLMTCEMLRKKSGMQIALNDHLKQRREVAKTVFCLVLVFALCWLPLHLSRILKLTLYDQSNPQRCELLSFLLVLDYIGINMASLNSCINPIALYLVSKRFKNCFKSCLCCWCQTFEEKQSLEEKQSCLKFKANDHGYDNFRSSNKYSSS
Description: as §5, §6

Cc1ccc(-c2c(NS(=O)(=O)CCc3ccccc3)nc(-c3ncccn3)nc2OCCOc2ncc(Cl)cn2)cc1 [Example 13]
IC50 [1]: 4 nM | IC50 [2]: 3680 nM

Cc1ccc(-c2c(NS(=O)(=O)CCc3ccccc3)ncnc2OCCOc2ncccn2)cc1 [Example 1, 2-phenyl-ethanesulfonic acid {6-[2-(pyrimidin-2-yloxy)-ethoxy]-5-p-tolyl-pyrimidin-4-yl}-amide]
IC50 [1]: 27 nM | IC50 [2]: 6650 nM

COc1cccc(Oc2c(NS(=O)(=O)CCc3ccccc3)ncnc2OCCOc2ncc(Br)cn2)c1 [Example 46]
IC50 [1]: 7 nM | IC50 [2]: 2360 nM

COc1cnc(OCCOc2nc(-c3ncccn3)nc(NS(=O)(=O)CCc3ccccc3)c2Oc2ccccc2OC)nc1 [Example 29]
IC50 [1]: 10 nM

COc1ccccc1Oc1c(NS(=O)(=O)CCc2ccccc2)nc(N2CCOCC2)nc1OCCOc1ncc(SC)cn1 [Example 39]
IC50 [1]: 3 nM | IC50 [2]: 261 nM

Cc1ccc(-c2c(NS(=O)(=O)CCc3cccs3)ncnc2OCCOc2ncc(Br)cn2)cc1 [Example 49]
IC50 [1]: 4 nM | IC50 [2]: 2490 nM

COc1ccccc1Oc1c(NS(=O)(=O)CCc2ccccn2)nc(-c2ccncc2)nc1OCCOc1ncc(Br)cn1 [Example 61]
IC50 [1]: 10 nM | Kb [3]: 14.8 nM | IC50 [2]: 1140 nM | Kb [4]: 85.1 nM

Cc1ccc(-c2c(NS(=O)(=O)CCc3ccccc3)ncnc2OCCOc2ncc(Br)cn2)cc1C [Example 19]
IC50 [1]: 3 nM | IC50 [2]: 1930 nM

Cc1ccc(-c2c(NS(=O)(=O)CCCc3ccccc3)ncnc2OCCOc2ncc(Br)cn2)cc1 [Example 75]
Kb [3]: 17.4 nM

COc1ccccc1Oc1c(NS(=O)(=O)Cc2ccc(C)cc2)nc(-c2ccncc2)nc1OCCOc1ncc(Br)cn1 [Example 71]
IC50 [1]: 115 nM | IC50 [2]: > 10000 nM

COc1cnc(OCCOc2ncnc(NS(=O)(=O)CCc3ccccc3)c2Oc2cccc(OC)c2)nc1 [Example 47]
IC50 [1]: 24 nM | IC50 [2]: 2720 nM

O=S(=O)(CCc1cccs1)Nc1ncnc(OCCOc2ncc(Br)cn2)c1-c1ccc(Cl)cc1 [Example 52]
IC50 [1]: 5 nM | IC50 [2]: 1770 nM

Cc1ccc(-c2c(NS(=O)(=O)CCc3ccccc3)ncnc2OCCOc2ncc(Br)cn2)cc1 [Example 7]
IC50 [1]: 4 nM | Kb [3]: 1.48 nM | IC50 [2]: 3310 nM | Kb [4]: 85.1 nM

COc1cnc(OCCOc2nc(-c3cnccn3)nc(NS(=O)(=O)CCc3ccccc3)c2Oc2ccccc2OC)nc1 [Example 34]
Kb [3]: 21.4 nM

Cc1ccc(-c2c(NS(=O)(=O)CCc3ccccc3)ncnc2OCCOc2ccc(C(F)(F)F)cn2)cc1 [Example 2, 2-phenyl-ethanesulfonic acid {5-p-tolyl-6-[2-(5-trifluoromethyl-pyridin-2-yloxy)-ethoxy]-pyrimidin-4-yl}-amide]
IC50 [1]: 20 nM | IC50 [2]: 899 nM

Cc1ccc(-c2c(NS(=O)(=O)CCc3ccccc3)ncnc2OCCOc2ncc(C)cn2)cc1 [Example 8]
Kb [3]: 37.2 nM

Cc1ccc(-c2c(NS(=O)(=O)CCc3ccccc3)nc(-c3ccncc3)nc2OCCOc2ncc(Br)cn2)cc1 [Example 10]
IC50 [1]: 9 nM | IC50 [2]: 2410 nM

COc1ccccc1Oc1c(NS(=O)(=O)CCc2ccccc2)nc(-c2ncccn2)nc1OCCOc1ncc(Br)cn1 [Example 5, 2phenylethanesulfonic acid {5-(2-methoxy-phenoxy)-6-[2-(5-bromopyrimidin-2-yloxy)-ethoxy]-2-(2-pyrimidinyl)-4-pyrimidinyl}-amide]
IC50 [1]: 3 nM | Kb [3]: 4.17 nM

Cc1ccc(-c2c(NS(=O)(=O)CCc3ccccc3)nc(-c3ncccn3)nc2OCCOc2ncc(Br)cn2)cc1 [Example 14]
IC50 [1]: 6 nM | IC50 [2]: 2230 nM
